The values below come from ChEMBL document CHEMBL2390904, “Bioavailable affinity label for collagen prolyl 4-hydroxylase” (Bioorg Med Chem, 2013).

A short description of data set [1]: (§1) Toxicity in L4-stage of Caenorhabditis elegans expressing dpy-18 assessed as embyronic lethality after 24 hrs by light microscopic analysis. The format is organism-based. The settings on record: in vivo, read-out: LD50.
A further data set has as its system Caenorhabditis elegans. The description is as §1. The format is organism-based. To be noted: in vivo, 24 h.
The nature of data set [2]: Binding affinity to human P4H expressed in Escherichia coli at 13 mM after 30 mins by SDS-PAGE analysis.
Data set [3] in a line: Irreversible inhibition of human P4H expressed in Escherichia coli using dansyl-Gly-phe-pro-Gly-OEt and alpha-ketoglutarate as substrate incubated up to 15 mins followed by substrate addition by Kitz-Wilson plot analysis.
Data set [4] in a line: Binding affinity to human P4H expressed in Escherichia coli using dansyl-Gly-phe-pro-Gly-OEt as substrate at 356 mM incubated up to 5 mins followed by substrate addition by competition assay in presence of alpha-ketoglutarate.

Calls of active or inactive are those of the source. No cut-off for these calls is given here.

Consider `O=C([O-])CCC(=O)C1CO1.[Na+]` (racemic), for which the LC50 at 24 h in data set [1] is 110 µM. Moreover, the Activity entry with Caenorhabditis elegans was “Dose-dependent effect”. Also, the result in data set [2] and in data set [4] was Active. For the same compound, the inhibition result in data set [3] is “Dose-dependent effect”.
